Holding throughout (settings): pH 10
The target in experiment [1] is T1, Carbonic anhydrase 1 (Homo sapiens, UniProt P00915). Kind of experiment: Hydratase Activity Assay. The protocol: (§1) Carbonic anhydrase enzyme activity was assayed both with respect to its hydratase activity (i.e. hydration of CO2) and to its esterase activity (i.e. hydrolysis of an ester of p-nitrophenylacetate)
The target in experiment [2] is T2, Carbonic anhydrase 2 (Homo sapiens, UniProt P00918). Put plainly: Hydratase Activity Assay. The protocol: as §1
For experiment [3], the target named is T1, Carbonic anhydrase 1. Put plainly: Esterase Activity Assay. The procedure: as §1
Experiment [4] concerns the target T2, Carbonic anhydrase 2. Kind of experiment: Esterase Activity Assay. The protocol:
as §1

T1 sequence (P00915 whole entry): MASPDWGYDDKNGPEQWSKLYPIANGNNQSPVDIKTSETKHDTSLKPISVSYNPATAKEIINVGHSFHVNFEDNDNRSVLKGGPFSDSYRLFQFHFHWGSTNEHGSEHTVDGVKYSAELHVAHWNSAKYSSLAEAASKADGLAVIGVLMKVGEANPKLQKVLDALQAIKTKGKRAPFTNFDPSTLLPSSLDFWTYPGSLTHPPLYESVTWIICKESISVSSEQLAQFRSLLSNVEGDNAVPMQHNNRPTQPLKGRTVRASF

Consider `O=c1oc2cc(O)c(O)cc2cc1-c1ccccc1` [DCP], for which the IC50 against Carbonic anhydrase 1 [1] is 124 µM; against Carbonic anhydrase 2 [2], 61.7 µM; against Carbonic anhydrase 1 [3], 160 µM; on Carbonic anhydrase 2 [4] it was 246 µM.
In the case of `Cc1ccc(-c2cc3cc(O)c(O)cc3oc2=O)cc1` [PPC], the IC50 on Carbonic anhydrase 1 [1] is 272 µM; on Carbonic anhydrase 2 [2] it was 561 µM; against Carbonic anhydrase 1 [3], 256 µM; against Carbonic anhydrase 2 [4] it was 127 µM.
The corresponding values for `Cc1cccc(-c2cc3cc(O)c(O)cc3oc2=O)c1` [MPC] are 320 µM, 504 µM, 837 µM and 201 µM.
For the compound `Cc1ccccc1-c1cc2cc(O)c(O)cc2oc1=O` [OPC], the concentration for half-maximal inhibition (IC50) against Carbonic anhydrase 1 [1] was found to be 206 µM; against Carbonic anhydrase 2 [2] it was 363 µM; on Carbonic anhydrase 1 [3], 153 µM; on Carbonic anhydrase 2 [4], 163 µM.

The values are drawn from BindingDB's records for doi:10.1080/14756360701404100 (Balikesir University Science & Art Faculty, 2008).
